Measured values published in patent US8921595B2, “Protein Arginine Deiminase inhibitors as novel therapeutics for rheumatoid arthritis and cancer” (University of South Carolina, priority 2009, dated 2014).

How the values were obtained:
[1] = test system: HL-60 cells; assay: Cytotoxicity / cell viability (CellTiter 96); format: cell-based, human; conditions: 24 h
Excerpt: To further evaluate the […] effects of these compounds, their ability to inhibit the growth of HL60 cells, a leukemic cell line, was characterized. […] Such finding prompted further investigation into this phenomenon and led to the discovery that for the HL-60 cell line, the cells that remained viable were actually being differentiated into non-cancerous granulocytes. Evidence of this differentiation includes the increased expression of PAD4 (FIG. 6).
HL-60 human promyelocytic leukemia cells were obtained from the ATCC (Manassas, Va.). The cells were cultured in RPMI 1640 media supplemented with 10% FBS and 1% Pencillin-Streptomycin, in a 5% CO2 incubator at 37° C. MCF-7 cells were cultured in DMEM media supplemented with 10% FBS and 1% Penicillin-Streptomycin, in a 5% CO2 incubator at 37° C.
HL-60 and MCF-7 cells were grown to confluence (1×10^6 cells/mL) in the appropriate media. […] Cell viability was determined using the CellTiter 96 Non-radioactive Cell Proliferation Assay (Promega). Cell viability was quantified as the percentage of control absorbance. […] When possible, EC50 values were determined by fitting the dose response data to equation 2 using GraFit (version 5.0.11)^33, Fractional Activity=1/(1+([1]/EC50) (eq 2) where [I] is the concentration of inhibitor (e.g., doxorubicin) and EC50 is the concentration of inhibitor that yields half-maximal cell survival. Western Blotting.

[2] = test system: HL-60 cells; assay: Combination with doxorubicin, HL-60 cell viability; format: cell-based, human; conditions: for effects of doxorubicin in combination: HL-60 cells, combination with doxorubicin; for viability of cancer cells in combination with doxorubicin: in conjunction with doxorubicin
Protocol: Although o-F- and o-Cl-amidine show some efficacy for killing cancer derived cells, the overall effects are modest. In light of such results, these inhibitors were tested in a combination with doxorubicin, a known chemotherapeutic that is used for the treatment of numerous cancers, often as part of a combination therapy. In accordance with the present disclosure, the additive effects of doxorubicin was tested with varying concentrations of both o-F- and o-Cl-amidine on HL-60 cell viability.
HL-60 and MCF-7 cells were grown to confluence (1×10^6 cells/mL) in the appropriate media. 50 μL of the MCF-7 cells were plated into each well of a 96 well plate with 40 μL of DMEM. Cells were allowed to adhere to the plate for 15 h at 37° C. and 5% CO2. For the HL-60 cells, 90 μL of the cells were added to each well of a 96 well plate. o-F-amidine, o-Cl-amidine, doxorubicin, or ATRA (10 μL, 100 nM to 100 μM) were added to the plates and allowed to incubate with the cells for 24 h. Cell viability was determined using the CellTiter 96 Non-radioactive Cell Proliferation Assay (Promega). Cell viability was quantified as the percentage of control absorbance. Each condition was performed in triplicate. The use of 1% triton served as a 100% killing control. When possible, EC50 values were determined by fitting the dose response data to equation 2 using GraFit (version 5.0.11)^33, Fractional Activity=1/(1+([1]/EC50) (eq 2) where [I] is the concentration of inhibitor (e.g., doxorubicin) and EC50 is the concentration of inhibitor that yields half-maximal cell survival. Western Blotting.

Compound | cell viability in HL-60 cells [1] | effects of doxorubicin in combination [2] | viability of cancer cells in combination with doxorubicin [2]
N=C(CCl)NCCC[C@H](NC(=O)c1ccccc1C(=O)O)C(N)=O [o-Cl-amidine, N-α-(2-carboxyl)benzoyl-N^5-(2-chloro-1-iminoethyl)-L-ornithine amide] | reduce cell viability | potentiated | reduced to levels that are undetectable above the background signal
N=C(CF)NCCC[C@H](NC(=O)c1ccccc1C(=O)O)C(N)=O [o-F-amidine, N-α-(2-carboxyl)benzoyl-N^5-(2-fluoro-1-iminoethyl)-L-ornithine amide] | reduce cell viability | potentiated | reduced to levels that are undetectable above the background signal
